Source: patent publication US20210007350A1, “USE OF A FUNGICIDAL COMPOSITION AS TREATMENT FOR POWDERY MILDEW” (DESARROLLO AGRICOLA Y MINERO, S.A., priority 2017, published 2021)

Test system: powdery mildew (Sphaerotheca macularis)
Assay: Control of powdery mildew in greenhouse strawberry cultivation (field efficacy trial)
Assay type: in vivo
Settings: Myclobutanil 20 g/l, dose 30 ml/hl
Method: To reflect the efficacy of the invention presented in this description, comparative studies were performed in commercial conditions. Thus, commercial application of the present fungicidal composition is carried out by ground spraying with manual sprayers, motor pumps, or other similar means. The invention is further characterised by a specific use with a product application dose of between 0.05 l/hl and 0.5 l/hl, and preferably between 0.2 l/hl and 0.3 l/hl of the composition described herein.
The conditions of the application solution will be those normally used for the crops described. The following examples show the spraying case.
Example 1: Application of the Fungicidal Composition for the Control of Powdery Mildew (Sphaerotheca macularis) in Strawberries
The aim of the protocol was to evaluate the effect of the fungicidal composition applied in different doses for the control of powdery mildew (Sphaerotheca macularis) in greenhouse strawberry cultivation and compare its efficacy against that of a standard chemical phytosanitary product such as myclobutanil. Location: Almeria (Spain). Variety: Benicia.
Untreated control specimen
Myclobutanil 20 g/l, dose 30 ml/hl
Fungicidal composition, dose 0.2l/hl
Fungicidal composition, dose 0.3l/hl
Number of applications: 4
Use of solution: 1000 l/ha.
Parameters evaluated: Efficacy.
Efficacy data were taken at the following times.
T0: 0, before first application.
T1: 10 days after the first application and just before the second application.
T2: 9 days after the second application and just before the third application.
T3: 9 days after the third application and just before the fourth application
T4: 7 days after the fourth application.

CCCCC(C#N)(Cn1cncn1)c1ccc(Cl)cc1 (centres unmarked) [Myclobutanil, myclobutanil]
efficacy % (T0) (T0: before first application, strawberry var. Benicia, greenhouse): 0%
efficacy % (T1) (T1: 10 days after the first application): 92.4%
efficacy % (T2) (T2: 9 days after the second application): 97.0%
efficacy % (T3) (T3: 9 days after the third application): 95.8%
efficacy % (T4) (T4: 7 days after the fourth application): 98.3%
